Laboratory results taken from patent US10889573B2, “Anthelmintic quinoline-3-carboxamide derivatives” (Bayer Animal Health GMBH, priority 2016, dated 2021).

Key:
[1] = test system: Nippostrongylus brasiliensis; assay: In vitro assay 2: Nippostrongylus brasiliensis (NIPOBR), acetylcholine esterase readout; conditions: read-out: activity (reduction of AChE compared to negative control); for inhibition at 1 µg/mL: 1 μg/ml; for inhibition at 10 µg/mL: 10 μg/ml
Experimental: In Vitro Assay 2: Nippostrongylus brasiliensis (NIPOBR)
Adult Nippostrongylus brasiliensis were washed with saline buffer containing 100 U/ml penicillin, 0.1 mg/ml streptomycin and 2.5 μg/ml amphotericin B. Test compounds were dissolved in DMSO and worms were incubated in medium in a final concentration of 10 μg/ml (10 ppm) respectively 1 μg/ml (1 ppm). An aliquot of the medium was used to determine the acetylcholine esterase activity in comparison to a negative control. The principle of measuring acetylcholine esterase as readout for anthelmintic activity was described in Rapson et al (1986) and Rapson et al (1987).

[2] = test system: Cooperia curticei; conditions: Cooperia curticei, 120 h, read-out: activity (larval mortality)
Experimental: In Vitro Assay 6: Cooperia curticei (COOPCU L3)
Solvent: dimethyl sulfoxide
Approximately 40 nematode larvae (Cooperia curticei) are transferred into a test tube containing the compound solution.
After 5 days percentage of larval mortality is recorded. 100% efficacy means all larvae are killed; 0% efficacy means no larvae are killed.

[3] = test system: Dirofilaria immitis third-stage larvae; assay: In vitro assay 4: Dirofilaria immitis (DIROIM L4), motility; conditions: 72 h, read-out: EC50 (reduction of motility)
[4] = biological target: C. elegans Slo-1a (Caenorhabditis elegans, UniProt Q95V25); conditions: pE50 (negative decadic logarithm of EC50), CHO cells expressing C. elegans Slo-1a, voltage sensitive dye
Experimental: In Vitro Assay 1: C. elegans Slo-1a—Action at a Recombinant C. elegans Cell Line
Cells were cultured at 37° C. and 5% CO2 in MEMalpha with Gutamax I (Invitrogen, Nr.: 32571), supplemented with 10% (v/v) heat inactivated fetal bovine serum (Invitrogen, Nr.: 10500), G418 (1 mg/ml, Invitrogen, Nr.: 10131). Cells were detached using Accutase (Sigma, Nr.: A6964).
Membrane Potential Measurements
Laboratory compound testing was performed on 384-well microtiter plates (MTPs, Greiner, Nr.: 781092). 8000 cells/well were plated onto 384-well MTPs and cultured for 20 to 24 hours at 37° C. and 5% CO2. After removal of the cell culture medium, the cells were washed once with tyrode (150 mM NaCl, 0.3 mM KCl, 2 mM CaCl2, 1 mM MgCl2, 0.8 mM NaH2PO4, 5 mM Glucose, 28 mM Hepes, pH 7.4) and then loaded with the voltage sensitive dye of the Membrane Potential Assay Kit diluted in tyrode for 1 h at room temperature.
After starting the measurement of fluorescence using a FLIPR Tetra (Molecular Devices, Exc. 510-545 nm, Emm. 565-625 nm), test compounds were added followed by the addition of KCl tyrode (final assay concentration: 70 mM KCl, 2 mM CaCl2, 1 mM MgCl2, 0.8 mM NaH2PO4, 5 mM Glucose, 28 mM Hepes, pH 7.4, including the voltage sensitive dye). The measurement was completed after 7 minutes.
The data were evaluated by using the ActivityBase XLfit software (IDBS) for curve fitting and calculation of the half-maximal effective concentration (EC50) and are reported as negative decadic logarithm (pE50).

[5] = test system: Haemonchus contortus; conditions: 120 h, read-out: activity (larval mortality)
Experimental: In Vitro Assay 7: Haemonchus contortus (HAEMCO L3)
Solvent: dimethyl sulfoxide
Approximately 40 larvae of the red stomach worm (Haemonchus contortus) are transferred into a test tube containing compound solution.
After 5 days the percentage of larval mortality is recorded. 100% efficacy means all larvae are killed, 0% efficacy means no larvae are killed.

[6] = test system: Dirofilaria immitis microfilariae; assay: In vitro assay 3: Dirofilaria immitis microfilariae (DIROIM L1), motility; conditions: 72 h, read-out: EC50 (reduction of motility), 72 h incubation

Sequence of C. elegans Slo-1a (Q95V25 whole entry): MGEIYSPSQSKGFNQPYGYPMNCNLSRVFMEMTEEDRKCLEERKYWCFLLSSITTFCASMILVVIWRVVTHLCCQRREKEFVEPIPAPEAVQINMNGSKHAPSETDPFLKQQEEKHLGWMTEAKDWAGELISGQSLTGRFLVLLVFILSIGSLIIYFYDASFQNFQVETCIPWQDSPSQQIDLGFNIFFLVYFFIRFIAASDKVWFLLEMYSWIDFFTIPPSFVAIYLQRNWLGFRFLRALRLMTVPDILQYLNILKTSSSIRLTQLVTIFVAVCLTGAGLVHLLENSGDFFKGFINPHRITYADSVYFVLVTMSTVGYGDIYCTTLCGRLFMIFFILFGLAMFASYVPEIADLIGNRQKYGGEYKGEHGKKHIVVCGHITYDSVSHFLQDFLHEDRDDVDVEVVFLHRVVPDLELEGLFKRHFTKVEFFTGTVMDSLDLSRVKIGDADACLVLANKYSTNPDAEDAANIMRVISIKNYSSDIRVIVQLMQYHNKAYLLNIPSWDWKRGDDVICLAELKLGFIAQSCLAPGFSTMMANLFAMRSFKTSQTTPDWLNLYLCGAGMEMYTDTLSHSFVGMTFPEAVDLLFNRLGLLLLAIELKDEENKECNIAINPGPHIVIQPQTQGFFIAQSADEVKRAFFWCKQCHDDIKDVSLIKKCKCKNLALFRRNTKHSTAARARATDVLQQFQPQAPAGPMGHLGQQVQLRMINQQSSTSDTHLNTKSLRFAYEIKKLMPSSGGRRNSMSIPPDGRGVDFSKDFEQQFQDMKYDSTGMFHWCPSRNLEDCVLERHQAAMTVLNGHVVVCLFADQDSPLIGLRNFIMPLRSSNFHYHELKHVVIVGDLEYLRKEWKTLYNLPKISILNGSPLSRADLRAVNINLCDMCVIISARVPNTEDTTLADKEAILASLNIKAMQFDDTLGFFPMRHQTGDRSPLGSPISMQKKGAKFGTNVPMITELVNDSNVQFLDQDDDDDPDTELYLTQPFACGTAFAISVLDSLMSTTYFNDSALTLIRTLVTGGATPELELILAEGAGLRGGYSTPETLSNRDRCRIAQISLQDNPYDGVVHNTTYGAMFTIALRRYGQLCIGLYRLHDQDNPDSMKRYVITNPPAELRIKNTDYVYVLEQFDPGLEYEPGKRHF

Row | Compound | inhibition at 1 µg/mL [1] [%] | mortality at 4 ppm [2] [%] | mortality at 20 ppm [2] [%] | EC50 [3] [µg/mL] | EC50 [4] [nM] | mortality at 4 ppm [5] [%] | mortality at 20 ppm [5] [%] | EC50 [6] [µg/mL] | inhibition at 10 µg/mL [1] [%]
1 | O=C(N[C@H]1CCOc2ccccc21)c1cnc2c(-c3cc(Cl)cc(Cl)c3)cccc2c1N1CC[C@@H](C(=O)O)C1 [Example 332] | > 80 | 100 | 100 | < 0.1 | < 3.16 | 100 | 100 | < 0.1 | 
2 | CCc1c(C(=O)N[C@H]2CCOc3ccccc32)cnc2c(-c3cc(Cl)cc(Cl)c3Cl)cccc12 [Example 573] | > 80 | 100 | 100 | < 0.1 | 3.16 to 31.6 | 100 | 100 | < 0.1 | 
3 | CN(C)c1c(C(=O)N[C@H]2CCOc3ccccc32)cnc2c(-c3cccc(C(F)(F)F)c3F)cccc12 [Example 50] | > 80 | 80 | 90 | < 0.1 | < 3.16 | 90 | 100 | < 0.1 | > 80
4 | O=C(N[C@H]1CCOc2ccccc21)c1cnc2c(-c3cc(Cl)cc(C(F)(F)F)c3)cccc2c1N1CCC(O)C1 (mixture of isomers) [Example 271] | > 80 | 90 | 90 | < 0.1 | < 3.16 | 90 | 90 | < 0.1 | 
5 | O=C(N[C@H]1CCOc2ccccc21)c1cnc2c(-c3cc(Cl)cc(C(F)(F)F)c3)cccc2c1N1CCOCC1 [Example 235] | > 80 | 90 | 100 | < 0.1 | < 3.16 | 90 | 100 | < 0.1 | 
6 | CN(C)c1c(C(=O)N[C@H]2CCOc3ccccc32)cnc2c(-c3ccc(F)cc3Cl)c(F)ccc12 [Example 172] | > 80 | 100 | 100 | < 0.1 | < 3.16 | 80 | 100 | < 0.1 | 
7 | CC(C)c1c(C(=O)N[C@H]2CCOc3ccccc32)cnc2c(-c3cc(Cl)cc(Cl)c3)cccc12 [Example 359, 8-(3,5-dichlorophenyl)-N-[(4S)-3,4-dihydro-2H-chromen-4-yl]-4-isopropyl-quinoline-3-carboxamide] | > 80 | 100 | 100 | < 0.1 | < 3.16 | 100 | 100 | < 0.1 | 
8 | O=C(N[C@H]1CCOc2ccccc21)c1cnc2c(-c3cc(Cl)ccc3F)c(F)ccc2c1N1CCOCC1 [Example 170] | > 80 | 100 | 100 | < 0.1 | < 3.16 | 100 | 100 | < 0.1 | 
9 | COC(=O)[C@H]1CCN(c2c(C(=O)N[C@H]3CCOc4ccccc43)cnc3c(-c4cc(Cl)cc(Cl)c4)cccc23)C1 [Example 281] | > 80 | 80 | 90 | < 0.1 | < 3.16 | 80 | 80 | < 0.1 | 
10 | O=C(N[C@H]1CCOc2ccccc21)c1cnc2c(-c3cccc(Cl)c3Cl)cccc2c1N1CCC(O)C1 (mixture of isomers) [Example 194] | > 80 | 100 | 100 | < 0.1 | < 3.16 | 90 | 100 | < 0.1 | 
11 | O=C(N[C@H]1CCOc2ccccc21)c1cnc2c(-c3cc(Cl)ccc3F)cccc2c1N1CCOCC1 [Example 221] | > 80 | 90 | 100 | < 0.1 | < 3.16 | 90 | 100 | < 0.1 | 
12 | Cc1cc(Cl)cc(-c2cccc3c(N4CCC(O)C4)c(C(=O)N[C@H]4CCOc5ccccc54)cnc23)c1F (mixture of isomers) [Example 272] | > 80 |  | 80 | < 0.1 | < 3.16 | 90 | 90 | < 0.1 | 
13 | CC(C)c1c(C(=O)N[C@H]2CCOc3ccccc32)cnc2c(-c3cccc(C(F)(F)F)c3F)cccc12 [Example 408] | > 80 | 100 | 100 | < 0.1 | < 3.16 | 90 | 90 | < 0.1 | 
14 | CC(C)c1c(C(=O)N[C@H]2CCOc3ccccc32)cnc2c(-c3cccc(C(F)(F)F)c3)cccc12 [Example 411] | > 80 | 100 | 100 | < 0.1 | < 3.16 | 100 | 100 | < 0.1 | 
15 | O=C(N[C@H]1CCOc2ccccc21)c1cnc2c(-c3cccc(Cl)c3)cccc2c1N1CCC(O)C1 (mixture of isomers) [Example 260] | > 80 | 80 | 90 | < 0.1 | < 3.16 | 80 | 90 | < 0.1 | 
16 | CN(C)c1c(C(=O)N[C@H]2CCOc3ccccc32)cnc2c(-c3cc(Cl)ncc3Cl)cccc12 [Example 415] | > 80 | 100 | 100 | < 0.1 | < 3.16 | 90 | 100 | < 0.1 | 
17 | O=C(N[C@H]1CCOc2ccccc21)c1cnc2c(-c3cccc(Cl)c3F)cccc2c1N1CCOCC1 [Example 226] | > 80 | 100 | 100 | < 0.1 | < 3.16 | 90 | 100 | < 0.1 | 
18 | CN(C)c1c(C(=O)N[C@H]2CCOc3ccccc32)cnc2c(-c3cc(F)c(F)c(F)c3)cccc12 [Example 47] | > 80 | 80 | 80 | < 0.1 | < 3.16 | 90 | 100 | < 0.1 | > 80
19 | CN(C)c1c(C(=O)N[C@H]2CCOc3ccccc32)cnc2c(-c3cccc(Cl)c3Cl)c(F)ccc12 [Example 330] | > 80 | 90 | 90 | < 0.1 | < 3.16 | 100 | 100 | < 0.1 | 
20 | O=C(N[C@H]1CCOc2ccccc21)c1cnc2c(-c3cccc4c3OCC4)cccc2c1N1CCOCC1 [Example 204] | > 80 |  | 100 | < 0.1 | 3.16 to 31.6 |  | 90 | < 0.1 | 
